Experimental data published in US11786503B2, “Pharmaceutical compositions and methods for countering chemotherapy induced cardiotoxicity” (Auransa Inc., priority 2016, dated 2023).
Read-outs that look alike come from different tables or passages of the source.

Tests used:
[1] = test system: Human iPSC-derived cardiomyocytes; assay: doxorubicin-induced mitochondrial toxicity, TMRM signal, 2 days (Example 2); type: cell-based; conditions: co-treated with 1.25 μM doxorubicin and 79 μM myricetin, compared to 1.25 μM doxorubicin alone
Method: Following treatment, the samples were incubated with a tetramethylrhodamine methyl ester (TMRM) dye to indicate mitochondrial health, and Hoechst 33342 to identify cell nuclei. Cells were imaged using the INCell Analyzer2200.

[2] = test system: Human iPSC-derived cardiomyocytes; assay: contractility, beat rate by Pulse video, 3 days (Example 3); type: cell-based; conditions: 72 hours; for beat rate: mock-treated 33.33
[3] = test system: Cardiomyocytes (human iPSC-derived); assay: doxorubicin-induced apoptosis, CellEvent dye, 3 days (Example 4); type: cell-based; conditions: Cardiomyocyte, 72 h, co-treated with 1 μM of doxorubicin, read-out: IC50 for protective effects against apoptosis
Method: Cardiomyocytes were prepared as described above. […] Following treatment, the samples were incubated with a CellEvent dye to indicate apoptosis-positive cells, and a second dye to identify cell nuclei.

[4] = test system: Human iPSC-derived cardiomyocytes; assay: cells; type: cell-based; conditions: Cardiomyocyte, 0.5 μM of Doxorubicin, 72 hours, read-out: EC50 for rescue from DOX-induced cell death
Method: To measure the rescue rates from the DOX-induced cell death in cardiomyocytes, the protective effect of myricetin was directly compared with that of dexraxozane (DEX; standard of care). Human iPSC-derived cardiomyocytes were treated with 0.5 μM of Doxorubicin and increasing concentrations of myricetin (MYR, circle) or dexraxozane (DEX, square). […] Cells were imaged using INCell Analyzer2200 (GE). […] (n=3).
Next, the ability of MYR to confer cardioprotection was directly compared with that of DHM as these two compounds display distinctive property in their structures and TOPOI inhibition activity. […] Human iPSC-derived cardiomyocytes were treated with 0.5 μM of Doxorubicin and increasing concentrations of myricetin (MYR, circle) or dihydromyricetin (DHM, triangle).

[5] = test system: Human iPSC-derived cardiomyocytes; assay: DOX-induced contractility dysfunction, Pulse video, 48 hours (Example 7); type: cell-based
[6] = test system: Human iPSC-derived cardiomyocytes; assay: DOX-induced DNA double strand break, γH2AX immunostaining; type: cell-based; conditions: 48 hours; for IC50: Homo sapiens, Cardiomyocyte, read-out: IC50, concentration at which DOX-induced double strand break was reduced to 50%, 0.5 μM of doxorubicin
[7] = test system: Human iPSC-derived cardiomyocytes; assay: DOX-induced sarcomere disruption, Cardiac Troponin T immunostaining (Example 8); type: cell-based; conditions: DOX (0.5 μM) plus MYR (100 μM), 72 hours
Method: DOX-induced cell death is often manifested by severity of structural disruptions of cardiomyocyte organization (e.g., sarcomere). To assess the protective effect of MYR against DOX-induced sarcomere disruption, human iPSC-derived cardiomyocytes were treated with DMSO, DOX (0.5 μM), or DOX plus MYR (100 μM). After 72 hours of treatment, cells were immunostained with antibody against Cardiac Troponin T (Abcam) to show sarcomeric organization in of the heart cells.

[8] = test system: TOPOIIβ mRNA expression; assay: TOPOIIβ mRNA expression in cardiomyocytes; type: cell-based; conditions: for TOPOIIβ mRNA expression: compound alone, DOX at 24 and 48 hours
[9] = test system: TOPOIIα expression; assay: TOPOIIα mRNA expression in cardiomyocytes; type: cell-based
[10] = test system: Doxorubicin treated human iPSC-derived cardiomyocytes; assay: iPSC-CM protection by myricetin analogs (Table 1); type: cell-based; conditions: Homo sapiens
[11] = test system: Human stem cell derived cardiomyocytes; assay: sunitinib-induced cell death (Example 14); type: cell-based; conditions: sunitinib (10 μM) plus MYR (1 to 100 μM), 72 hours
[12] = test system: sorafenib treated cardiomyocytes; assay: sorafenib-induced contractile dysfunction (Example 14); type: cell-based, human; conditions: 5 μM sorafenib treated cardiomyocytes
[13] = test system: cardiomyocytes; assay: bortezomib-induced cardiotoxicity (Example 14); type: cell-based, human; conditions: 100 μM myricetin
[14] = test system: C57BL/16 mice; assay: acute anthracycline-induced cardiotoxicity model, echocardiography (Example 16); type: in vivo
Excerpt: An acute anthracycline-induced cardiotoxicity model was established in 9-10 week old C57BL/16 mice obtained from The Jackson Laboratory. […] General health of the animals was monitored on a daily basis throughout the course of the study. […] Left ventricular (LV) M-mode images were obtained in the two-dimensional short axis view close to the papillary muscles. Tracings of endocardial tissue during systole and diastole were made off line.

[15] = test system: human induced pluripotent stem cell-derived cardiomyocytes (iPSC-CM)
[16] = test system: A549 cells; assay: doxorubicin-mediated death of lung cancer cells, CellTiter-Glo (Example 22); type: cell-based; conditions: co-treated with increasing concentrations of doxorubicin, 72 hours
Method: A549 cells (lung cancer) were cultured for 1 day before performing experiments. […] XLFit was used for curve fitting.

[17] = test system: cardiomyocytes differentiated from induced pluripotent stem cells; assay: acute toxicity on electrophysiology, MEA beat period and field potential duration (Example 23); type: cell-based; conditions: lower drug concentration, at least 20 minutes
Method: Samples were either mock-treated with 0.1% DMSO, or treated with increasing concentrations of the indicated drug for at least 20 minutes. Cardiomyocytes were treated with the hERG potassium channel blocker E4031 as a control. Following treatment, the beat period and field potential duration (FPD) were measured in each sample using the MEA.

[18] = test system: MDA-MB-231 cells; conditions: co-treated with increasing concentrations of doxorubicin, 72 hours
[19] = test system: cardiomyocytes differentiated from induced pluripotent stem cells; assay: long term toxicity on electrophysiology, active electrodes (Example 24); type: cell-based; conditions: for decrease in the number of active electrodes relative to the mock-treated sample: various concentrations, at least 5 days
Method: Samples were either mock-treated with 0.1% DMSO, or treated with various concentrations of the indicated drug. Following treatment, the percentage of active electrodes in each sample was measured for at least 5 days. Percentage of active electrodes was quantified and graphed in a time course.

[20] = biological target: topoisomerase IIβ (Homo sapiens, UniProt Q02880); conditions: 100 μM, 24 hours, iPSC-CMs
[21] = biological target: T1, TOPOIIα (Homo sapiens, UniProt P11388); assay: kDNA decatenation assay, TOPOIIα; type: biochemical; conditions: even at extreme concentrations (>200 μM);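 further: kDNA incubated with one unit of TOPOIIα at 37 °C for 30 min, decatenated product resolved on 1% agarose gel, inhibition from relative band intensity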
T1 construct: purchased Inspiralis

[22] = biological target: T2, TOPOIIβ (Homo sapiens, UniProt Q02880); assay: kDNA decatenation assay, TOPOIIβ; type: biochemical; conditions: even at extreme concentrations (>200 μM);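 further: kinetoplast DNA incubated with one unit of TOPOIIβ at 37 °C for 30 min, decatenated product resolved on 1% agarose gel, inhibition scored from relative band intensity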
T2 construct: purchased Inspiralis

[23] = test system: cardiomyocytes differentiated from induced pluripotent stem cells; assay: long-term mitochondrial health, TMRM, 7 days (Example 19); type: cell-based, human; conditions: 1 μM of doxorubicin
[24] = test system: cardiomyocytes differentiated from induced pluripotent stem cells; assay: electrophysiological activity with doxorubicin, active electrodes (Example 20); type: cell-based, human
Method: Samples were either mock-treated with 0.1% DMSO, treated with 1 μM doxorubicin, or co-treated with 1 μM doxorubicin and various concentrations of vitexin (e.g., 11.6 μM, 37 μM, or 116 μM). Following treatment, the percentage of active electrodes in each sample was measured for 72 hours. Percentage of active electrodes was quantified and graphed in a time course (FIG. 28A). The average number of active electrodes per well was quantified and graphed at 30 hours after the treatment (FIG. 28B, n=6, standard deviation is shown as error bars).

[25] = test system: MDA-MB-231 cells; assay: cells; conditions: Homo sapiens, MDA-MB-231, 72 h, read-out: cell viability LC50 of doxorubicin
[26] = MYR 40 mg/kg i.p. 30 minutes prior to doxorubicin 20 mg/kg, day 5
[27] = MYR 40 mg/kg i.p., 2-fold higher than doxorubicin
[28] = Doxorubicin 20 mg/kg single intraperitoneal injection, day 5 vs baseline

T1 sequence (P11388 whole entry): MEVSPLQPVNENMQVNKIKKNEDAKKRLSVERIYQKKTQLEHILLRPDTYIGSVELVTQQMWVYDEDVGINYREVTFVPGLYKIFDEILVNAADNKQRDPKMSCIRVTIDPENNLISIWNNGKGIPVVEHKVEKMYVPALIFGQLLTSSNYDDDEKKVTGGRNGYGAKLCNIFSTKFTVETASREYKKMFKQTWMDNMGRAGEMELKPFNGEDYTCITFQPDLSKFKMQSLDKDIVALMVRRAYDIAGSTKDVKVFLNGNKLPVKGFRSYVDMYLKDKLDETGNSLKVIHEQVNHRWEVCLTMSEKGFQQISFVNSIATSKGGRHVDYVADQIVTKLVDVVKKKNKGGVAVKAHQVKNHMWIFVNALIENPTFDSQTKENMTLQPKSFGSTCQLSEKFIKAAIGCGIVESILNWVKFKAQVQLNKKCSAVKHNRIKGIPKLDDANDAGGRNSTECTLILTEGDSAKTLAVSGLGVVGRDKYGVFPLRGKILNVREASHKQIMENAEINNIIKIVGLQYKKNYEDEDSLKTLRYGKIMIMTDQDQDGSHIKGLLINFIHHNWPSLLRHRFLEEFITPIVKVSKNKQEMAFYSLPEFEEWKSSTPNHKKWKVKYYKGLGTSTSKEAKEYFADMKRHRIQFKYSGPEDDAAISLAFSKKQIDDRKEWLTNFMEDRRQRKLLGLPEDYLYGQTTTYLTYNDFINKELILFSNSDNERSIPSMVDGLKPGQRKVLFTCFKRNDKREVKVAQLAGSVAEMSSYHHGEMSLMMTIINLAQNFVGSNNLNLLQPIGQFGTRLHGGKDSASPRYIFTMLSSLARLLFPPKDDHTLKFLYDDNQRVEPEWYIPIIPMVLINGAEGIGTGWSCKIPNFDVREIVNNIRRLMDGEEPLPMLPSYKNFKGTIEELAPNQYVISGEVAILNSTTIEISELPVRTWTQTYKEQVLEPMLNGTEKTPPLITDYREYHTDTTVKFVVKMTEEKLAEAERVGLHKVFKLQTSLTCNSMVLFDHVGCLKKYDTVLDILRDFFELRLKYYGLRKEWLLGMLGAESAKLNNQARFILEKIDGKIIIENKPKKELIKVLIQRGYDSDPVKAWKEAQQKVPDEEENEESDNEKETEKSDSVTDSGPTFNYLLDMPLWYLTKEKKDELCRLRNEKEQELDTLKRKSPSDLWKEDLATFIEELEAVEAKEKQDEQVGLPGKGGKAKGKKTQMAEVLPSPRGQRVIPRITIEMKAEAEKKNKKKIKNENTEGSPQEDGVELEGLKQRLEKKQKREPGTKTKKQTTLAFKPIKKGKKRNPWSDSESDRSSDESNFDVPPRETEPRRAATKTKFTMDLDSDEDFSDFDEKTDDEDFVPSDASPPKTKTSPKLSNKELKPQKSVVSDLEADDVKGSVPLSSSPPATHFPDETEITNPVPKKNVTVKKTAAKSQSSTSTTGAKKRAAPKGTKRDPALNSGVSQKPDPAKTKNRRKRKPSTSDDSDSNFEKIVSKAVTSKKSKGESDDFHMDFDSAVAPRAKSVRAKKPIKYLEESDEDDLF
Sequence of topoisomerase IIβ (Q02880 whole entry): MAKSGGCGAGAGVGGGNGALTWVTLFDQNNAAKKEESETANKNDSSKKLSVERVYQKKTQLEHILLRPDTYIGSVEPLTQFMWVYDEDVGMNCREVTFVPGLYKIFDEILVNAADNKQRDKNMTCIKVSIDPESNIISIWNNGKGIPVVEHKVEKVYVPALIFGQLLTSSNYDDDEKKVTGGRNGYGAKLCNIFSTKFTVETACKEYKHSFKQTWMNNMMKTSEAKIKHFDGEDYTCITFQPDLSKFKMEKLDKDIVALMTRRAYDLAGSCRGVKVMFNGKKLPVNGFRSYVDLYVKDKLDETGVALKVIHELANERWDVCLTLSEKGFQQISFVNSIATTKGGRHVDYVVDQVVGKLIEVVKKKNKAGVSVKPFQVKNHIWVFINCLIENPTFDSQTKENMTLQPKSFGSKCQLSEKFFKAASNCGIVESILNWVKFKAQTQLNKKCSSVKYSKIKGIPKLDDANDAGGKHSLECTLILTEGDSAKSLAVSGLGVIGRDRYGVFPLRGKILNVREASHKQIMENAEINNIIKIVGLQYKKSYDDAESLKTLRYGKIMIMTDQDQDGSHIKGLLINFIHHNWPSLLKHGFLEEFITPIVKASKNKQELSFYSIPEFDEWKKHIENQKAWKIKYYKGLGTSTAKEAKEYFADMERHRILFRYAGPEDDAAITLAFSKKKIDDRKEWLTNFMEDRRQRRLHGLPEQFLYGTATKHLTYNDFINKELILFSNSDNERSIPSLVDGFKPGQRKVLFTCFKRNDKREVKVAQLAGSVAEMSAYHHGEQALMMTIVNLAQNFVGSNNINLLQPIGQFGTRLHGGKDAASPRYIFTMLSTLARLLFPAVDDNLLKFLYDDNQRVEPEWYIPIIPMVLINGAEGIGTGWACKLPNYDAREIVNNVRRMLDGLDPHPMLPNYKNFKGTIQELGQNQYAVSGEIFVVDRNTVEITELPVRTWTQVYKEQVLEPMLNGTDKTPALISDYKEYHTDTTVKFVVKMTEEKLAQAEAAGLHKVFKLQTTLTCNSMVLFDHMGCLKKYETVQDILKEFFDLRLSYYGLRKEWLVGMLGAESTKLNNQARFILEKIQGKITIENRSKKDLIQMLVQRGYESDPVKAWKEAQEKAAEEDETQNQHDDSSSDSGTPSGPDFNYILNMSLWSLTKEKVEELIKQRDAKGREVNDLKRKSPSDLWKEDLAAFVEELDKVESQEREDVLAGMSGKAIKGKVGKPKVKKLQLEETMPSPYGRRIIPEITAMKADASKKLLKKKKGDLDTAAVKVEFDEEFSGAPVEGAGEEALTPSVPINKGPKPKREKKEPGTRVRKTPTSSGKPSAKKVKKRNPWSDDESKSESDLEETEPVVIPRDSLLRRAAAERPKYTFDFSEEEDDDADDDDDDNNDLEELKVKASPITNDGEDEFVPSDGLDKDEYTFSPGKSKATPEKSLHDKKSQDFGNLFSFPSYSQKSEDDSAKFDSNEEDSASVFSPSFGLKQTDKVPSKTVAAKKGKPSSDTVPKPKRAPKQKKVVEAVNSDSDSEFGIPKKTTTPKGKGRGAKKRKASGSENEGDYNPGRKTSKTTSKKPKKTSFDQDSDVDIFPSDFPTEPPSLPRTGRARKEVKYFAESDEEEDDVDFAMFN
T2 sequence (Q02880 whole entry): as above

With `O=c1c(O)c(-c2cc(O)c(O)c(O)c2)oc2cc(O)cc(O)c12` [Compound 1, 3,5,7,3′,4′,5′-hexahydroxyflavone] the “TMRM signal (mitochondrial health)” value [1] was “greater TMRM signal”, the beat rate ([2]; 79 μM myricetin alone) was 39.33 beats per minute and the beat rate ([2]; co-treated with 79 μM myricetin and 1.25 μM doxorubicin) was 37.33 beats per minute. The IC50 [3] was 20.5 µM, the EC50 [4] was 7.5 µM and the “correction of DOX-induced contractile dysfunction” value ([5]; DOX (0.5 μM) plus MYR (100 μM), as compared to DEX (100 μM)) was “significantly corrected”. The “protection against DOX-induced double strand break (γH2AX-positive cells)” value ([6]; DOX (0.5 μM) plus 100 μM agent) was “significant protection”, the IC50 [6] was 5.28 µM and the “protection against DOX-induced sarcomere disruption” value [7] was “significant protection”. For the same compound, the “TOPOII expression (TOPOIIβ) in the presence of myricetin” value ([8]; DOX plus myricetin) was “restored to a level close to normal”, the “TOPOIIβ mRNA expression” value [8] was “did not have any effect” and the “expression of TOPOIIα” value ([9]; myricetin in the presence of DOX) was “further repressed”. For the same compound, the EC50 ([10]; Cardiomyocyte, approximate, read-out: EC50 for cardioprotection) was 10 to 20 µM, the EC50 ([10]; iPSC-CM, read-out: iPSC-CM protection EC50) was 14.5 µM and the Emax ([10]; iPSC-CM, read-out: iPSC-CM protection Max Effect (%)) was 78%. The “protection against sunitinib-induced cell death” value [11] was “displayed protection”, the cardiac dysfunction corrected [12] was “more than 80%” and the “rescue of bortezomib-induced cardiotoxicity” value [13] was “rescued”. For the same compound, the “improvement of EF” value [14, 26] was 10%, the “improvement of FS” value [14, 26] was 7% and the “rescue of EF dysfunction caused by doxorubicin” value [14, 27] was 49%. For the same compound, the “rescue of FS dysfunction caused by doxorubicin” value [14, 27] was 52%, the “difference in the number of total cells, as compared to mock-treated control” value [15] was “no significant difference” and the “reduction the number of total cells, as compared to mock-treated control” value ([15]; co-treated with myricetin and 1.25 μM doxorubicin, 72 hours) was 27.57%.

`CC(=O)N[C@@H](CS)C(=O)O` [N-acetyl cysteine] was tested, and the “difference in the percentage of cell death vs doxorubicin without protective agent” value [16] was “no significant difference”, the “difference in beat period or field potential duration vs control samples” value (“difference … vs control samples” for short) [17] was “no appreciable difference” and the “difference in the percentage of cell death vs doxorubicin without protective agent” value [18] was “no significant difference”.

For `Nc1c(Br)cc(Br)cc1CN[C@H]1CC[C@H](O)CC1` [ambroxol], the “difference in the percentage of cell death vs doxorubicin without protective agent” value [16] was “no significant difference”, the “difference … vs control samples” value [17] was “no appreciable difference” and the “decrease in the number of active electrodes relative to the mock-treated sample” value [19] was “no observable decrease”. For the same compound, the “difference in the percentage of cell death vs doxorubicin without protective agent” value [18] was “no significant difference”.

`C[C@@H](CN1CC(=O)NC(=O)C1)N1CC(=O)NC(=O)C1` [dexrazoxane] was tested, and the “difference in the percentage of cell death vs doxorubicin without protective agent” value [16] was “no significant difference”, the “difference … vs control samples” value [17] was “no appreciable difference” and the “reduction in the number of active electrodes” value ([19]; 167 μM dexrazoxane, about 2 days post-treatment) was ~25%. For the same compound, the “reduction in the number of active electrodes” value ([19]; 167 μM dexrazoxane, about 3 days post-treatment) was ~50%, the “reduction in the number of active electrodes” value ([19]; 500 μM dexrazoxane, about 2 days post-treatment) was ~50% and the “reduction in the number of active electrodes” value ([19]; 500 μM dexrazoxane, about 3 days post-treatment) was ~100%. For the same compound, the “topoisomerase IIβ protein levels” value [20] was “marked disappearance of TOPOIIβ” and the “difference in the percentage of cell death vs doxorubicin without protective agent” value [18] was “no significant difference”.

With `O=C1c2c(O)cc(O)cc2O[C@H](c2cc(O)c(O)c(O)c2)[C@H]1O` [dihydromyricetin] the IC50 [3] was 40.5 µM, the EC50 [4] was 14 µM and the IC50 [6] was 11.3 µM. The “TOPOIIα enzymatic activity inhibition” value [21] was “did not inhibit” and the “TOPOIIβ enzymatic activity inhibition” value [22] was “did not inhibit”.

In the case of `COc1cccc2c1C(=O)c1c(O)c3c(c(O)c1C2=O)C[C@@](O)(C(=O)CO)C[C@@H]3O[C@H]1C[C@H](N)[C@H](O)[C@H](C)O1` [doxorubicin, reference compound], the contraction ([2]; 1.25 μM doxorubicin, in the absence of myricetin) is reported as “completely inhibited contraction”, the “dysfunction in cardiomyocyte contraction” value ([5]; DOX (0.5 μM)) is reported as “reduction in beating, duration, and peak height” and the “TOPOIIβ mRNA expression” value [8] is reported as “significantly repressed”. For the same compound, the “expression of TOPOIIα” value ([9]; DOX alone, over time) was “slowly repressed”, the “decrease of ejection fraction (EF)” value [14, 28] was 19% and the “decrease of fractional shortening (FS)” value [14, 28] was 15%. The “mitochondrial toxicity (decrease in TMRM-positive cells) vs mock-treated” value [23] was “increase in mitochondrial toxicity”, the “average number of active electrodes” value ([24]; 1 μM doxorubicin in the absence of vitexin, 30 hours) was “about 2 active electrodes” and the “decrease in the number of active electrodes” value ([24]; 1 μM doxorubicin, in the absence of vitexin, 24 hours after drug treatment) was ~50%. For the same compound, the “decrease in the number of active electrodes, relative to time zero” value ([24]; 1 μM doxorubicin, in the absence of vitexin, 30 hours after drug treatment) was ~95%, the “reduction in the number of total cells, as compared to mock-treated control” value ([15]; human, 72 h, 1.25 μM) was 62.6% and the CC50 [25] was 0.53 µM.

With `Nc1ccc(O)c(C(=O)O)c1` [mesalamine] the “difference in the percentage of cell death vs doxorubicin without protective agent” value [16] was “no significant difference”, the “decrease in the number of active electrodes relative to the mock-treated sample” value [19] was “no observable decrease” and the “difference in the percentage of cell death vs doxorubicin without protective agent” value [18] was “no significant difference”.

Compound `C[C@@H]1O[C@@H](Oc2c(-c3cc(O)c(O)c(O)c3)oc3cc(O)cc(O)c3c2=O)[C@H](O)[C@H](O)[C@H]1O` [myricitrin] has an IC50 [3] of 38.5 µM.
